The source of these data is US8501446B2 (Vertex Pharmaceuticals Incorporated, priority 2004, dated 2013).

What all share (assay type): biochemical
The target of one assay is T1, ROCK I (AA 6-553) (Homo sapiens, UniProt Q13464).
T1 construct: ROCK I (AA 6-553)
Nature of the assay: ROCK inhibition assay, standard coupled enzyme system ("Enzyme"). The note with it: enzyme-linked assay. The essentials: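 ROCK I (AA 6-553) at 45 nM and 30 °C with 45 μM ATP and 200 μM peptide, in 100 mM HEPES pH 7.5, 10 mM MgCl2, 25 mM NaCl, 2 mM DTT, 1.5% DMSO. ADP output read by a PK/LDH coupled system: 2.5 mM PEP, 350 μM NADH, 30 μg/ml PK, 10 μg/ml LDH.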

Assay [1] deals with T2, full length Aurora-A (AA 1-403) (Homo sapiens, UniProt O14965).
T2 construct: full length Aurora-A (AA 1-403)
T2 sequence (O14965 1-403): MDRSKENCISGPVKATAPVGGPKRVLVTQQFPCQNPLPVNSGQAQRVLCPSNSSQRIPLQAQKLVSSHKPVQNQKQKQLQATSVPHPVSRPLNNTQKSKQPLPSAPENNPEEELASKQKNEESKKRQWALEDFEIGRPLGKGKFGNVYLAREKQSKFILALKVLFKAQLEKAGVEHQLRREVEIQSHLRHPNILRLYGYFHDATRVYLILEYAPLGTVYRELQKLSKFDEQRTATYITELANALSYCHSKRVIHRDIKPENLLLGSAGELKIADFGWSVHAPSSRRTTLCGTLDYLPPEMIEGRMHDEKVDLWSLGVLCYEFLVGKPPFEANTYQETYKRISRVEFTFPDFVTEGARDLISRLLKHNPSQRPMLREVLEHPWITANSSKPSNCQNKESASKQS
Nature of the assay: Aurora-A inhibition assay, standard coupled enzyme system. Conditions: average Ki if more than one value determined.

In a further assay the target is Aurora-B (Homo sapiens, UniProt Q96GD4). Put plainly: Aurora-B inhibition assay, radioactive assay. Conditions: average Ki if more than one value determined. On the procedure: Compounds were screened for their ability to inhibit JAK3 using a standard radioactive enzyme assay. 1.5 μL/well of a DMSO stock containing serial dilutions of a compound of the present invention (concentrations ranging from 667 μM to 46 nM) was placed in a 96 well polycarbonate plate. 50 μL per well of kinase buffer (100 mM HEPES (pH 7.4), 10 mM MgCl2, 25 mM NaCl, 1 mM DTT, and 0.01% bovine serum albumin (BSA)) containing 2 μM poly(Glu)4Tyr and 10 μM ATP was also added to the plate. To initiate the reaction, 50 μL kinase buffer containing 2 nM JAK3 enzyme was added. Final ATP concentration was 5 μM [γ-^33P] ATP (200 μCi ^33P ATP/μmol ATP (Perkin Elmer, Cambridge, Mass.). After 20 minutes at room temperature (25° C.), the reaction was stopped by adding 50 μL 20% trichloroacetic acid (TCA)/0.4 mM ATP to each well. The entire content of each well was then transferred to a 96 well glass fiber filter plate using a TomTek Cell Harvester. After washing, 60 μL scintillation fluid was added and ^33P incorporation detected using a Perkin Elmer TopCount. After removing mean background values for all of the data points the data was fit using Prism software to obtain a Ki(app). Inhibition of JAK2 was measured as above except that final poly(Glu)4Tyr concentration was 15 μM and final ATP concentration was 12 μM.
Sequence of Aurora-B (Q96GD4 whole entry): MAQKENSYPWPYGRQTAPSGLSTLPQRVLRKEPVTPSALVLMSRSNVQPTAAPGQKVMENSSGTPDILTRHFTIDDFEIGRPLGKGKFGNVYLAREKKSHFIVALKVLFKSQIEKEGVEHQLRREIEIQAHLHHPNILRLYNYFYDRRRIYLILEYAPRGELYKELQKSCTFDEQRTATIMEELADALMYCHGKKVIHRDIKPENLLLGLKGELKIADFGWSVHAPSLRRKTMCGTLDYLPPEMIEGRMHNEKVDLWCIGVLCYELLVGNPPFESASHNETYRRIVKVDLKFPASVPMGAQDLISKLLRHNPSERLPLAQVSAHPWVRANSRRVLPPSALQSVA
Some compounds were screened for their ability to inhibit ROCK using a standard radioactive enzyme assay. Assays were carried out in a solution containing 100 mM HEPES (pH 7.5), 10 mM MgCl2, 25 mM NaCl, 2 mM DTT, and 1.5% DMSO. Final substrate concentrations in the assay were 13 μM [γ-^33P] ATP (25 mCi ^33P ATP/mmol ATP, Perkin Elmer, Cambridge, Mass./Sigma Chemicals, St Louis, Mo.) and 27 μM Myelin Basic Protein (MBP). Final enzyme concentration in the assay was 5 nM ROCK. Assays were carried out at room temperature. 1.5 μl of DMSO stock containing serial dilutions of the compound of the present invention (concentrations ranging from 10 μM to 2.6 nM) was placed in a 96 well plate. 50 μl of Solution 1 (100 mM HEPES (pH 7.5), 10 mM MgCl2, […]) was added to the plate. The reaction was initiated by addition of 50 μl of Solution 2 (100 mM HEPES (pH 7.5), 10 mM MgCl2, 4 mM DTT, […] and 10 nM ROCK). After 2 hours the reaction was quenched with 50 μL of 30% trichloroacetic acid (TCA, Fisher) containing 9 mM ATP. Transfer of 140 μL of the quenched reaction to a glass fiber filter plate (Corning, Cat. No. 3511) was followed by washing 3 times with 5% TCA. 50 μL of Optima Gold scintillation fluid (Perkin Elmer) was added and the plates were counted on a Top Count (Perkin Elmer). After removing mean background values for all of the data points the data was fit using Prism software to obtain a Ki(app).
An assay stock buffer solution was prepared containing all of the reagents listed above with the exception of ATP and the test compound of interest. The assay stock buffer solution (60 μl) was incubated in a 96 well plate with 2 μl of the test compound of interest at final concentrations spanning 0.002 μM to 30 μM at 30° C. for 10 min. Typically, a 12 point titration was conducted by preparing serial dilutions (from 1 mM compound stocks) with DMSO of the test compounds in daughter plates. The reaction was initiated by the addition of 5 μl of ATP (final concentration 200 μM). Rates of reaction were obtained using a Molecular Devices Spectramax plate reader (Sunnyvale, Calif.) over 10 min at 30° C. The Ki values were determined from the rate data as a function of inhibitor concentration using computerized nonlinear regression (Prism 3.0, Graphpad Software, San Diego, Calif.). Aurora-C activity was screened in a similar manner using Aurora-C protein. Aurora-B activity was screened using a radioactive assay, such as described in Examples 1 and 2, but using Aurora-B protein.

T1 sequence (Q13464 6-553, species assumed): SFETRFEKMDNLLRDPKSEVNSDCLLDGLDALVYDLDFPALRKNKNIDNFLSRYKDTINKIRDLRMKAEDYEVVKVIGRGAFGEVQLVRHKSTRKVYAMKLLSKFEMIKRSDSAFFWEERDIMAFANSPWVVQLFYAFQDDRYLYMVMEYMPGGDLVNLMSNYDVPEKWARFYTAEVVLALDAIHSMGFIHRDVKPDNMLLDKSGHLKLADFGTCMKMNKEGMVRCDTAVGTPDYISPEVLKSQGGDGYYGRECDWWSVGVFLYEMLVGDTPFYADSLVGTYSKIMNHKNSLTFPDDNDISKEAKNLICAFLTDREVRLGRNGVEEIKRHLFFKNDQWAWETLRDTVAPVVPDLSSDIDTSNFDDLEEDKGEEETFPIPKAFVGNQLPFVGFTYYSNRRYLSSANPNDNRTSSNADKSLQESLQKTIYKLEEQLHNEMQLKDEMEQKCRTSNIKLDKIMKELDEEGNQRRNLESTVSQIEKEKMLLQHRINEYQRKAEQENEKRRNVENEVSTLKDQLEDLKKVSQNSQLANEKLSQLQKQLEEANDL

`O=C(CNc1nc(-c2c[nH]c3ncc(Cl)cc23)ncc1C(F)(F)F)NCC(F)(F)F` [Compound 421]: the Ki – broadly, a measure of affinity in units of concentration, obtained from inhibition or displacement – on ROCK I (AA 6-553) was 500 to 5000 nM; in assay [1] it was below 500 nM; at Aurora-B it was 500 to 5000 nM.
As for `C[C@H](Nc1nc(-c2c[nH]c3ncc(Cl)cc23)ncc1F)C(=O)NCCc1c[nH]c2ccccc12` [Compound 437], the results for the Ki (at ROCK I (AA 6-553); in assay [1]; on Aurora-B) were 500 to 5000 nM, below 500 nM and 500 to 5000 nM, respectively.
For `C[C@H](Nc1nc(-c2c[nH]c3ncc(Cl)cc23)ncc1F)C(=O)NCCN(C)C(=O)OC(C)(C)C` [Compound 451], the inhibition constant (Ki) (at ROCK I (AA 6-553); in assay [1]; on Aurora-B) was 500 to 5000 nM in each case.
In the case of `C[C@@H](C(=O)NCC(F)(F)F)N(C)c1nc(-c2c[nH]c3ncc(Cl)cc23)ncc1C(F)(F)F` [Compound 424], the Ki is 500 to 5000 nM on ROCK I (AA 6-553), below 500 nM in assay [1] and below 500 nM on Aurora-B.
Regarding `Cc1ccccc1Nc1nc(-c2c[nH]c3ncc(Cl)cc23)ncc1F` [Compound 299], the Ki (on ROCK I (AA 6-553); in assay [1]; on Aurora-B) was below 500 nM in each case.
Consider `CC[C@H](Nc1nc(-c2c[nH]c3ncc(Cl)cc23)ncc1F)c1ccccc1` [Compound 354], for which the inhibition constant (Ki) was 500 to 5000 nM on ROCK I (AA 6-553), below 500 nM in assay [1] and below 500 nM at Aurora-B.
In the case of `C[C@H](Nc1nc(-c2c[nH]c3ncc(Cl)cc23)ncc1F)C(=O)NCCc1cccnc1` [Compound 449], the Ki was 500 to 5000 nM on ROCK I (AA 6-553), below 500 nM in assay [1] and 500 to 5000 nM on Aurora-B.
In the case of `C[C@H](Nc1cc(N2CCN(C(=O)OC(C)(C)C)CC2)nc(-c2c[nH]c3ncc(Cl)cc23)n1)C(=O)NCC(F)(F)F` [Compound 415], the Ki at ROCK I (AA 6-553) was 500 to 5000 nM; in assay [1], below 500 nM; at Aurora-B, below 500 nM.
`C[C@H](Nc1nc(-c2c[nH]c3ncc(Cl)cc23)nc2ccccc12)c1ccc(F)cc1` [Compound 404]: the Ki was 500 to 5000 nM at ROCK I (AA 6-553), below 500 nM in assay [1] and 500 to 5000 nM at Aurora-B.
`CNC(=O)[C@@H](Nc1nc(-c2c[nH]c3ncc(Cl)cc23)ncc1F)C(C)(C)C` [Compound 385]: the figures for the Ki (at ROCK I (AA 6-553); in assay [1]; on Aurora-B) were 500 to 5000 nM, below 500 nM and below 500 nM, respectively.
Take `C[C@H](Nc1nc(-c2c[nH]c3ncc(Cl)cc23)ncc1F)C(=O)NCCc1ccccn1` [Compound 438]: the Ki (at ROCK I (AA 6-553); in assay [1]; at Aurora-B) was 500 to 5000 nM throughout.
As to `C[C@H](Nc1nc(-c2c[nH]c3ncc(Cl)cc23)ncc1F)C(=O)NCCCN1CCCC1` [Compound 439], the results for the Ki (at ROCK I (AA 6-553); in assay [1]; at Aurora-B) were 500 to 5000 nM, below 500 nM and below 500 nM, respectively.
In the case of `C[C@H](Nc1nc(-c2c[nH]c3ncc(Cl)cc23)c(F)cc1C(=O)O)c1ccc(F)cc1` [Compound 397], the inhibition constant (Ki) at ROCK I (AA 6-553) is 500 to 5000 nM; in assay [1] it was below 500 nM; on Aurora-B, below 500 nM.
For the compound `C[C@H](Nc1cc(NCCO)nc(-c2c[nH]c3ncc(Cl)cc23)n1)C(=O)NCC(F)(F)F` [Compound 417], the Ki at ROCK I (AA 6-553) was 500 to 5000 nM; in assay [1] it was below 500 nM; on Aurora-B, below 500 nM.
Turning to `CC(C)Nc1nc(-c2c[nH]c3ncc(Cl)cc23)ncc1F` [Compound 315], the Ki on ROCK I (AA 6-553) is 500 to 5000 nM; in assay [1], below 500 nM; at Aurora-B it was 500 to 5000 nM.
As for `C[C@H](Nc1nc(-c2c[nH]c3ncc(Cl)cc23)ncc1[N+](=O)[O-])c1ccc(F)cc1` [Compound 422], the inhibition constant Ki was 500 to 5000 nM on ROCK I (AA 6-553), below 500 nM in assay [1] and below 500 nM on Aurora-B.
As for `Cc1cnc(-c2c[nH]c3ncc(Cl)cc23)nc1N[C@@H](C)c1ccc(F)cc1` [Compound 322], the Ki on ROCK I (AA 6-553) is 500 to 5000 nM; in assay [1], below 500 nM; at Aurora-B, below 500 nM.
In the case of `CC(C)OCCCNC(=O)[C@H](C)Nc1nc(-c2c[nH]c3ncc(Cl)cc23)ncc1F` [Compound 440], the Ki (at ROCK I (AA 6-553); in assay [1]; at Aurora-B) was 500 to 5000 nM in each case.
